Reference: patent US20240277683A1, “COMPOUNDS” (CTXT PTY LTD, priority 2018, published 2024)
Read-outs that look alike come from different tables or passages of the source. Each block holds one molecule with its values, some of them ahead of it.

Key:
MOF-KAT8 = MOF-KAT8 (Homo sapiens (Human), UniProt Q9H7Z6); assay type: biochemical; settings: 1 μM AcCoA, histone H4
TIP60-KAT5 = TIP60-KAT5 (Homo sapiens (Human), UniProt Q92993); assay: Acetyltransferase biochemical assay (AlphaScreen), KAT5; settings: 1 μM AcCoA, histone H4
MOZ-KAT6A = MOZ-KAT6A (Homo sapiens (Human), UniProt Q92794); assay: Acetyltransferase biochemical assay (AlphaScreen), KAT6A; settings: 1 μM AcCoA, histone H3.1
HBO-KAT7 = HBO-KAT7 (Homo sapiens (Human), UniProt O95251); assay: Acetyltransferase biochemical assay (AlphaScreen), KAT7; settings: 1 μM AcCoA, histone H3.1
[1] = system: acetylation of the histone H3 Lysine 14 marker in U2OS cells; assay: Histone H3 Lysine 14 Acetylation Biomarker Assay; assay type: cell-based; settings: Homo sapiens
Method: Compounds may be tested for their ability to inhibit acetylation of the histone H3 Lysine 14 marker in the following assay:
(§1) The cell line U2OS was seeded at a density of 3,000 cells per well in 384-well optical quality tissue culture plates in RPMI medium supplemented with 10% foetal bovine serum and 10 mM Hepes. The cells were allowed to adhere for 24 hours under standard culture conditions (37 degree Celsius, 5% CO2). At the end of this period the cells were washed with serum free medium. […] Plates were washed and read on a PerkinElmer Opera HCS high content imaging platform.

[2] = system: histone H2A.Z Lysine 7 acetylation marker in U2OS cells; assay: H2A.Z Lysine 7 Acetylation Biomarker Assay; assay type: cell-based; settings: Homo sapiens
Method: Compounds may be tested for their ability to inhibit the histone H2A.Z Lysine 7 acetylation marker in the following assay:
as §1

[3] = system: acetylation of the histone H3K23 marker in U2OS cells; assay: Histone H3 Lysine 23 Acetylation Biomarker Assay; assay type: cell-based; settings: Homo sapiens
Method: Compounds may be tested for their ability to inhibit acetylation of the histone H3K23 marker in the following assay:
The cell line U2OS was seeded at a density of 9,000 cells per well in 96 well optical quality tissue culture plates in RPMI medium and 10% foetal bovine serum, and allowed to adhere for 24 hours under standard culture conditions (37 degree Celsius, 5% CO2). At the end of this period the medium was aspirated. […] After incubation for 24 hours, the cells were fixed with 3.7% formaldehyde in PBS for 20 minutes at room temperature, washed (5×5 minutes) with phosphate buffer saline containing 0.1% Tween 20 and blocked with Odyssey blocking buffer (LI-COR, Lincoln, NE) containing 0.1% TritonX100. Anti-H3K23ac specific antibody (Abcam ab177275) in Odyssey blocking buffer containing 0.1% Tween 20 was added and incubated for 16 hours at 4 degree Celsius. […] Plates were washed as previously and read on a PerkinElmer Phenix high content imaging platform.

Sequence of TIP60-KAT5 (Q92993 other isoform, or with tags, fused parts or gaps): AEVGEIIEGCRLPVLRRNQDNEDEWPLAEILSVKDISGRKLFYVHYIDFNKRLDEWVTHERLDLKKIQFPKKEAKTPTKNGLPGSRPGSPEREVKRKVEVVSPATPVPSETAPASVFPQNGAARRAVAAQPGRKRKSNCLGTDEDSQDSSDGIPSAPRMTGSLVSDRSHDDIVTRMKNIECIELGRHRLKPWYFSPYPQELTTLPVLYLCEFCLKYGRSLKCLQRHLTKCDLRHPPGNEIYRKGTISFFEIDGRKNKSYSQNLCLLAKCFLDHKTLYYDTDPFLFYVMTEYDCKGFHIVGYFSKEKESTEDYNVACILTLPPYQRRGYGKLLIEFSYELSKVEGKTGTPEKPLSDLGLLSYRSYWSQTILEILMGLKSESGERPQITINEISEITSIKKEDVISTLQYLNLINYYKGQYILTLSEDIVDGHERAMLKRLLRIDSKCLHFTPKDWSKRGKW
Sequence of HBO-KAT7 (O95251 other isoform, or with tags, fused parts or gaps): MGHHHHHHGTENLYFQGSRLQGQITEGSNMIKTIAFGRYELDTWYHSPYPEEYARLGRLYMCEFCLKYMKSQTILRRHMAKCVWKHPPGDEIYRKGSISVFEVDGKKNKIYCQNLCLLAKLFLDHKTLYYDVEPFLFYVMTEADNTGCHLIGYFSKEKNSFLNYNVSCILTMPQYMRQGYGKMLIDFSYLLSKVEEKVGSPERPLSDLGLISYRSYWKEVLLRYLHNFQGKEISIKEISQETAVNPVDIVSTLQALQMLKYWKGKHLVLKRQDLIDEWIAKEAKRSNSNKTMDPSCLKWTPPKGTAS
Sequence of MOF-KAT8 (Q9H7Z6 177-447): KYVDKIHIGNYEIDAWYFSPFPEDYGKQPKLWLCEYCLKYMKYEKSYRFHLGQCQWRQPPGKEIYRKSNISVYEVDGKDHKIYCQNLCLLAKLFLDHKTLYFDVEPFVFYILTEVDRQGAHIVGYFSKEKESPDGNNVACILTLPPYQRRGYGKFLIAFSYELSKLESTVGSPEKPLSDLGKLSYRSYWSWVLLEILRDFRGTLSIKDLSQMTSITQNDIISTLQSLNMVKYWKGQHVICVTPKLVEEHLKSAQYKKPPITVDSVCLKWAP
Sequence of MOZ-KAT6A (Q92794 other isoform, or with tags, fused parts or gaps): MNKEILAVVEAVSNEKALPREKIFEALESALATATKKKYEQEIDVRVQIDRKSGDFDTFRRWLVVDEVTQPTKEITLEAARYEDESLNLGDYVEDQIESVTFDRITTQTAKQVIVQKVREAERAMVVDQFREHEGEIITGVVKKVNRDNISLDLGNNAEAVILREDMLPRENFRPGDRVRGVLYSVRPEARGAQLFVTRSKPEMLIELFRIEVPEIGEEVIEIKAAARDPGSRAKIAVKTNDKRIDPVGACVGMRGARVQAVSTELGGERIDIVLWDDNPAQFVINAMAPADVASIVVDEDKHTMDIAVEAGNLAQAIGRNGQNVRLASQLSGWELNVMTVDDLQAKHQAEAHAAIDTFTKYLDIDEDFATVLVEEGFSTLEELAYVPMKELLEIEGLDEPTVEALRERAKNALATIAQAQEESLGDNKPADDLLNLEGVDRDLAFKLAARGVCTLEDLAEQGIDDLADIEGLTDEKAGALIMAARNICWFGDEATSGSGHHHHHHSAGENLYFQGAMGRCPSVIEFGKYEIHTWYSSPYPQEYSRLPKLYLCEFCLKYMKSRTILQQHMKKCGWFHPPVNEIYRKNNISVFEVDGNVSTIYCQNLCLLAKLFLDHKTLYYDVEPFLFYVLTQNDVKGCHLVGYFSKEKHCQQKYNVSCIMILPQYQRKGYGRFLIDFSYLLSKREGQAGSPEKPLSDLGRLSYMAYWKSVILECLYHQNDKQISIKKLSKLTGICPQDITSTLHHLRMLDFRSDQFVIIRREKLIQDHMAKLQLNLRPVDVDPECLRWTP

SMILES: N#Cc1ccc(S(=O)(=O)Nc2cc(-c3ccccc3)on2)cc1 [Example 45, 4-cyano-N-(5-phenylisoxazol-3-yl)benzenesulfonamide]
IC50 (MOF-KAT8): > 125 µM | IC50 (TIP60-KAT5): > 125 µM

SMILES: COc1cccc(OC)c1S(=O)(=O)Nc1nnc(-c2ccccc2Cn2cccn2)s1 [Example 101, N-(5-(2-((1H-Pyrazol-1-yl)methyl)phenyl)-1,3,4-thiadiazol-2-yl)-2,6-dimethoxybenzenesulfonamide]
IC50 (TIP60-KAT5): > 125 µM | IC50 (MOZ-KAT6A): > 125 µM

SMILES: COC(=O)c1c(-c2ccc(OC)cc2)noc1NS(=O)(=O)c1ccc(C)c(C)c1 [Example 83, methyl 5-((3,4-dimethylphenyl)sulfonamido)-3-(4-methoxyphenyl)isoxazole-4-carboxylate]
IC50 (HBO-KAT7): > 125 µM

SMILES: COc1ccccc1-c1cc(N(C)S(=O)(=O)c2c(OC)cc(-c3ccccc3)cc2OC)no1 [Example 55, 2,6-Dimethoxy-N-[5-(2-methoxyphenyl)isoxazol-3-yl]-N-methyl-4-phenyl-benzenesulfonamide]
IC50 (MOF-KAT8): > 125 µM | IC50 (TIP60-KAT5): > 125 µM

SMILES: O=S(=O)(Nc1cc(-c2ccccc2)on1)c1ccccc1 [Example 63, N-(5-phenylisoxazol-3-yl)benzenesulfonamide]
IC50 (MOF-KAT8): > 125 µM

SMILES: COc1ccccc1-c1nnc(NS(=O)(=O)C2CCOCC2)s1 [Example 127, N-(5-(2-methoxyphenyl)-1,3,4-thiadiazol-2-yl)tetrahydro-2H-pyran-4-sulfonamide]
IC50 (TIP60-KAT5): > 125 µM | IC50 (MOZ-KAT6A): > 125 µM

SMILES: N#Cc1cccc(S(=O)(=O)Nc2cc(-c3ccccc3)on2)c1 [Example 46, 3-cyano-N-(5-phenylisoxazol-3-yl)benzenesulfonamide]
IC50 (TIP60-KAT5): > 125 µM

SMILES: CCc1ccc(OC)c(S(=O)(=O)Nc2cc(-c3ccncc3)no2)c1 [Example 85, 5-Ethyl-2-methoxy-N-(3-(pyridin-4-yl)isoxazol-5-yl)benzenesulfonamide]
IC50 (TIP60-KAT5): > 125 µM

SMILES: O=S(=O)(Nc1cc(-c2ccccc2)on1)c1cccnc1 [Example 30, N-(5-phenylisoxazol-3-yl)pyridine-3-sulfonamide]
IC50 (TIP60-KAT5): > 125 µM | IC50 (HBO-KAT7): > 125 µM

SMILES: O=S(=O)(Nc1cc(-c2ccccc2)on1)c1ccc(C(F)(F)F)cc1 [Example 47, N-(5-phenylisoxazol-3-yl)-4-(trifluoromethyl)benzenesulfonamide]
IC50 (TIP60-KAT5): > 125 µM

IC50 (TIP60-KAT5): > 125 µM | IC50 (HBO-KAT7): > 125 µM
SMILES: O=S(=O)(Nc1noc(-c2ccccc2)n1)c1ccccc1F [Example 68, 2-Fluoro-N-(5-phenyl-1,2,4-oxadiazol-3-yl)benzenesulfonamide]

IC50 (TIP60-KAT5): > 125 µM
SMILES: CCc1ccc(OC)c(S(=O)(=O)Nc2nnc(-c3ccc(OC)c(OC)c3)o2)c1 [Example 125, N-(5-(3,4-Dimethoxyphenyl)-1,3,4-oxadiazol-2-yl)-5-ethyl-2-methoxybenzenesulfonamide]

SMILES: COc1ccc(-c2ccn[nH]2)cc1-c1cc(NS(=O)(=O)c2c(OC)cccc2OC)no1 [Example 72, 2,6-Dimethoxy-N-(5-(2-methoxy-5-(1H-pyrazol-5-yl)phenyl)isoxazol-3-yl)benzenesulfonamide]
IC50 ([1]; U2OS, 24 h): 0.575 µM | IC50 ([2]; U2OS, 24 h): 4.73 µM | IC50 ([3]; U2OS, 24 h): 0.204 µM

SMILES: O=S(=O)(Nc1cc(-c2ccccc2)on1)c1cccc(Cl)c1 [Example 35, 3-chloro-N-(5-phenylisoxazol-3-yl)benzenesulfonamide]
IC50 (TIP60-KAT5): > 125 µM | IC50 (HBO-KAT7): > 125 µM

SMILES: COc1cccc(S(=O)(=O)Nc2cc(-c3ccccc3)on2)c1 [Example 36, 3-methoxy-N-(5-phenylisoxazol-3-yl)benzenesulfonamide]
IC50 (TIP60-KAT5): > 125 µM

IC50 ([1]; H3K14ac, U2OS cells, serum free medium, 24 hours, read-out: IC50): 3.2 µM | IC50 ([2]; H2A.ZK7ac, U2OS cells, serum free medium, 24 hours, read-out: IC50): 29.3 µM | IC50 ([3]; H3K23ac, U2OS cells, 24 hours, read-out: IC50): 2.26 µM
SMILES: COc1ccccc1-c1nnc(NS(=O)(=O)c2c(OC)cccc2OC)s1 [Example 17, 2,6-Dimethoxy-N-(5-(2-methoxyphenyl)-1,3,4-thiadiazol-2-yl)benzenesulfonamide]
